Target: Maltase-glucoamylase (Homo sapiens, UniProt O43451)
Test: Inhibition of alpha-glucosidase

Sequence of Maltase-glucoamylase (O43451 whole entry): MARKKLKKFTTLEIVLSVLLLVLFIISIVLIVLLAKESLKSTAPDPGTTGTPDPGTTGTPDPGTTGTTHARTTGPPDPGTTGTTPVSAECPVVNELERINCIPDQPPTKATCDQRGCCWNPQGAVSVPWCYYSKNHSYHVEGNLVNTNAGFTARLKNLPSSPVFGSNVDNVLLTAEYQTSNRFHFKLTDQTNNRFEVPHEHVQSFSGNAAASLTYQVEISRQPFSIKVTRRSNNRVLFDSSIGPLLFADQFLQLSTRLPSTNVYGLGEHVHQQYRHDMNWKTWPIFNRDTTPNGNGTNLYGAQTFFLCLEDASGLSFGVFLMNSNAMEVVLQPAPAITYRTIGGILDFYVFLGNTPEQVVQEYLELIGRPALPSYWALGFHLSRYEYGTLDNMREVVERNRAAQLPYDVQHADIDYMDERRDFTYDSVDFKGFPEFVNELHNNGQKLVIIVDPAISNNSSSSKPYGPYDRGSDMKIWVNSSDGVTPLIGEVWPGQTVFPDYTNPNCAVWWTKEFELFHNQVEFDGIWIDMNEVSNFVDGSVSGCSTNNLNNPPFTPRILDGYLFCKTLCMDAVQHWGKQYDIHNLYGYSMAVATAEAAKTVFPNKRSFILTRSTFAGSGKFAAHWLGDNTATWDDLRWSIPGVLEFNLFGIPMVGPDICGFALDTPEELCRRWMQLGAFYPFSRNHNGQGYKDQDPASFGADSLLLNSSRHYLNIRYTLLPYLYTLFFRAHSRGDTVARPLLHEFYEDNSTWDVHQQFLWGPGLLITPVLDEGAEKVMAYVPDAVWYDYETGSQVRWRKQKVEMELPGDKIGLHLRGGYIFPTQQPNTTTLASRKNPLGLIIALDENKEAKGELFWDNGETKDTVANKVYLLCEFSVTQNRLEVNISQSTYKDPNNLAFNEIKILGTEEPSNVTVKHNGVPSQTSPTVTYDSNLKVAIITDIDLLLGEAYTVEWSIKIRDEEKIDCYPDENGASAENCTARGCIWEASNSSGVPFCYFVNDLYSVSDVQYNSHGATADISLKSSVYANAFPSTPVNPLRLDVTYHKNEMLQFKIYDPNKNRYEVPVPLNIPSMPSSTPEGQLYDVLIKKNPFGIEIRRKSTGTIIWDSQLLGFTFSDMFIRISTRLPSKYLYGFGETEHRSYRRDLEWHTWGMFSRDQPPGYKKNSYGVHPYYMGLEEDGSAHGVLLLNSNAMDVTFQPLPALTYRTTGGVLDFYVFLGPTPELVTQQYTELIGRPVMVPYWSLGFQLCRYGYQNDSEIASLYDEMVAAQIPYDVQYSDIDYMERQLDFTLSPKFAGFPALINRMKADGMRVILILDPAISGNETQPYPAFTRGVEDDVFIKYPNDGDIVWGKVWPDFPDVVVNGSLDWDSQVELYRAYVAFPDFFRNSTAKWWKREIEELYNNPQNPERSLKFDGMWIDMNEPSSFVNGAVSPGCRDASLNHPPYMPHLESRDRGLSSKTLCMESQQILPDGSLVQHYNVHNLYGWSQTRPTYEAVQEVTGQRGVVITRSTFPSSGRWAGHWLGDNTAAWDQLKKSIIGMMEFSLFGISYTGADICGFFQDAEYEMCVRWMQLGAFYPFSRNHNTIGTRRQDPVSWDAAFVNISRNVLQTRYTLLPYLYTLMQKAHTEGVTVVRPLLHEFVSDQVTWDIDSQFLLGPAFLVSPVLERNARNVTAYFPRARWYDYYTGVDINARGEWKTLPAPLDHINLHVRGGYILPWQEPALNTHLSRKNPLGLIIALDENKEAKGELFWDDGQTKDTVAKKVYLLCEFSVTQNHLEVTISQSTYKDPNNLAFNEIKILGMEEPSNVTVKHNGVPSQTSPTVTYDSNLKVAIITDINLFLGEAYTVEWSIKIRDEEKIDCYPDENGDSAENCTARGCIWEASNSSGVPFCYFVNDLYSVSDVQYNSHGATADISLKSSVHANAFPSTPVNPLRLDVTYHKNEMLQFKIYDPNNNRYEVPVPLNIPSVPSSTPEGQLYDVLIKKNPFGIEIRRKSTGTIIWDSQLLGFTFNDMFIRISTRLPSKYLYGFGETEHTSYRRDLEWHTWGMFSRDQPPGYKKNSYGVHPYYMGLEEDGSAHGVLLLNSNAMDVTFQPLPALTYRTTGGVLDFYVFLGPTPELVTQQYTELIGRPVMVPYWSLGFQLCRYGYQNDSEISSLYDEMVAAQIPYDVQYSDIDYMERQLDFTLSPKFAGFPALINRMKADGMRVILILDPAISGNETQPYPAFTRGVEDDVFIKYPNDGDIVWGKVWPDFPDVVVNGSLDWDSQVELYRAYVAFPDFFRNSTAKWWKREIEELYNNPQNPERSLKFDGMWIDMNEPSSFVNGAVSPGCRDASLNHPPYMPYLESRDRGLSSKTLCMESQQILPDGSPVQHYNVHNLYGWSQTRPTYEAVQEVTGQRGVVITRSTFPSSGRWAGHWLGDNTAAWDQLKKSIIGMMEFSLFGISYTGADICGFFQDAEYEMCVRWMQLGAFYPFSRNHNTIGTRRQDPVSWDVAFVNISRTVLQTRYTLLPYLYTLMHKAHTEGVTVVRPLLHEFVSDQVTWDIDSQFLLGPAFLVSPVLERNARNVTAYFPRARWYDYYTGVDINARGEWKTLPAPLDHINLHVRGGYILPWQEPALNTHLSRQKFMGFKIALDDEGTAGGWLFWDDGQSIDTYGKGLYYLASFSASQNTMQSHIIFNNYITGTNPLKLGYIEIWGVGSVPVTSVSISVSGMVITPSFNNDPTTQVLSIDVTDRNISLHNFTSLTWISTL

`C=C1CC[C@@H]2[C@](C)(COC(=O)c3cccnc3)[C@H](OC(=O)c3cccnc3)CC[C@@]2(C)[C@@H]1/C=C/C1=CC(=C\C(C)=C\CCC/C=C/C)/OC1=O` [14-deoxy-11,12-didehydro-3,19-dinicotinate-15-(2,8-dimethanyl-2,7-octanedieneylidene)-andrographolide] was tested, and the IC50 was 28 µM.
`C=C1CC[C@@H]2[C@](C)(COC(=O)c3cccnc3)[C@H](OC(=O)c3cccnc3)CC[C@@]2(C)[C@@H]1/C=C/C1=CC(=C/c2ccco2)/OC1=O` [14-deoxy-11,12-didehydro-3,19-dinicotinate-15-(2-furanmethanylidene)-andrographolide] gave an IC50 of 36 µM.
`C=C1CC[C@@H]2[C@](C)(COC(=O)c3cccnc3)[C@H](OC(=O)c3cccnc3)CC[C@@]2(C)[C@@H]1/C=C/C1=CC(=C\c2ccc(N(C)C)cc2)/OC1=O` [14-deoxy-11,12-didehydro-3,19-dinicotinate-15-(p(-dimethylamino)benzylidene)-andrographolide] showed an IC50 of 25 µM.
With `C=C1CC[C@@H]2[C@](C)(COC(=O)c3cccnc3)[C@H](OC(=O)c3cccnc3)CC[C@@]2(C)[C@@H]1/C=C/C1=CC(=C\c2ccc(OC)cc2)/OC1=O` [14-deoxy-11,12-didehydro-3,19-dinicotinate-15-p-methoxylbenzylidene andrographolide] the IC50 was 11 µM.
`C=C1CC[C@@H]2[C@](C)(CO)[C@H](O)CC[C@@]2(C)[C@@H]1/C=C/C1=CC(=C/c2ccco2)/OC1=O` [14-deoxy-11,12-didehydro-15-(-2-furanmethanylidene)-andrographolide] was tested, and the IC50 was 100 µM.
In the case of `C=C1CC[C@@H]2[C@](C)(CO)[C@H](O)CC[C@@]2(C)[C@@H]1/C=C/C1=CC(=C/c2cc(OC)c(OC)cc2OC)/OC1=O` [14-deoxy-11,12-didehydro-15-trimethoxylbenzylideneandrographolide], the IC50 is reported as 84 µM.
`C=C1CC[C@@H]2[C@](C)(CO)[C@H](O)CC[C@@]2(C)[C@@H]1/C=C/C1=CC(=C/c2ccc(N(C)C)cc2)/OC1=O` [14-deoxy-15-(p-(dimethanylamino)-benzylidene)-11,12-didehydroandrographolide] was tested, and the IC50 was 70 µM.
`C=C1CC[C@@H]2[C@](C)(CO)[C@H](O)CC[C@@]2(C)[C@@H]1/C=C/C1=CC(=C/c2ccc3c(c2)OCO3)/OC1=O` [15-(benzo[1,3]dioxole-5-methanylidene)-14-deoxy-11,12-didehydroandrographolide] gave an IC50 of 82 µM.
For `C=C1CC[C@@H]2[C@](C)(COC(=O)c3cccnc3)[C@H](OC(=O)c3cccnc3)CC[C@@]2(C)[C@@H]1/C=C/C1=CC(=C\c2cccc(Br)c2)/OC1=O` [15-(m-bromoacylbenzylidene)-14-deoxy-11,12-didehydro-3,19-dinicotinateandrographolide], the IC50 was 14 µM.
For `C=C1CC[C@@H]2[C@](C)(COC(=O)c3cccnc3)[C@H](OC(=O)c3cccnc3)CC[C@@]2(C)[C@@H]1/C=C/C1=CC(=C\c2ccc(Cl)cc2)/OC1=O` [15-(p-chlorinebenzylidene)-14-deoxy-11,12-didehydro-3,19-dinicotinateandrographolide], the IC50 was 6 µM.
`C=C1CC[C@@H]2[C@](C)(COC(=O)c3cccnc3)[C@H](OC(=O)c3cccnc3)CC[C@@]2(C)[C@@H]1/C=C/C1=CC(=C\c2ccccc2)/OC1=O` [15-benzylidene14-deoxy-11,12-didehydro-3,19-dinicotinateandrographolide] showed an IC50 of 16 µM.
In the case of `C=C1CC[C@@H]2[C@](C)(CO)[C@H](O)CC[C@@]2(C)[C@@H]1/C=C/C1=CC(=C/c2ccccc2)/OC1=O` [15-benzylidene-14-deoxy-11,12-didehydroandrographolide], the IC50 is reported as 58 µM.
